Source: ChEMBL document CHEMBL1126992, “The synthesis and biochemical evaluation of new A1 selective adenosine receptor agonists containing 6-hydrazinopurine moieties” (Bioorg Med Chem Lett, 1993)

Columns and labels:
Adenosine A2 receptor = Adenosine A2 receptor (Rattus norvegicus, UniProt P29276+P30543); experiment: Tested for inhibition of adenosine A2 receptor binding to rat brain
[1] = Partition coefficient (logP); assay type: physicochemical; settings: octanol/water
Adenosine receptor A1 = molecular target: T1, Adenosine receptor A1 (Rattus norvegicus, UniProt P25099); experiment: Tested for inhibition of adenosine A1 receptor binding to rat brain
T1 sequence (P25099 whole entry): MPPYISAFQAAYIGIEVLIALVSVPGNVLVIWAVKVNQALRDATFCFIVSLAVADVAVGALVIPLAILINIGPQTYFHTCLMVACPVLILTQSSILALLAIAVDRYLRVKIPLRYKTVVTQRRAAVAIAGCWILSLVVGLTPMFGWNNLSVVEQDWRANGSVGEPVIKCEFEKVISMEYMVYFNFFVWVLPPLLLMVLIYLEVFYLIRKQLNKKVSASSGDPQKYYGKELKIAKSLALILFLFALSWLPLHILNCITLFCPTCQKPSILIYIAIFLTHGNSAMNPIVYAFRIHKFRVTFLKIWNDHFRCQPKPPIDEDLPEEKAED

Cavia porcellus [2] = species on record: Cavia porcellus; experiment: Tested for agonistic potency to inhibit contractile force in isolated guinea pig atria; assay type: functional
Cavia porcellus [3] = species on record: Cavia porcellus; experiment: Tested for agonistic potency to inhibit stimulated cAMP accumulation in isolated guinea pig heart; assay type: functional

Compound | Ki (Adenosine A2 receptor) [nM] | logP [1] | Ki (Adenosine receptor A1) [nM] | IC50 (Cavia porcellus [2]) [nM] | IC50 (Cavia porcellus [3]) [nM]
Nc1nc(NN2CCCCC2)c2ncn([C@@H]3O[C@H](CO)[C@@H](O)[C@H]3O)c2n1 | 3320 | -0.55 | 30 |  | 
OC[C@H]1O[C@@H](n2cnc3c(NC4CCCC4)nc(Cl)nc32)[C@H](O)[C@@H]1O |  | 2.07 |  |  | 
OC[C@H]1O[C@@H](n2cnc3c(NN4CCOCC4)nc(Cl)nc32)[C@H](O)[C@@H]1O | 1040 | 0.11 | 13.3 |  | 
OC[C@H]1O[C@@H](n2cnc3c(NN4CCCCC4)ncnc32)[C@H](O)[C@@H]1O | > 10000 | 1.28 | > 3000 |  | 
CSc1nc(NN2CCCCC2)c2ncn([C@@H]3O[C@H](CO)[C@@H](O)[C@H]3O)c2n1 | 2825 | 0.89 | 390 |  | 
OC[C@H]1O[C@@H](n2cnc3c(NN4CCC(c5ccccc5)CC4)nc(Cl)nc32)[C@H](O)[C@@H]1O | 1200 | 2.36 | 11 | 320 | 2.5
O=S(=O)(c1ccccc1)C1CCN(Nc2nc(Cl)nc3c2ncn3[C@@H]2O[C@H](CO)[C@@H](O)[C@H]2O)CC1 | 220 |  | 17 | 320 | 0.7
CN1CCN(Nc2nc(Cl)nc3c2ncn3[C@@H]2O[C@H](CO)[C@@H](O)[C@H]2O)CC1 | > 30000 | 0.11 | 184 |  | 
OC[C@H]1O[C@@H](n2cnc3c(NN4CCN(c5ccccc5)CC4)nc(Cl)nc32)[C@H](O)[C@@H]1O | 5571 | 1.42 | 55 |  | 
CCCOc1nc(NN2CCCCC2)c2ncn([C@@H]3O[C@H](CO)[C@@H](O)[C@H]3O)c2n1 | 2700 |  | 400 |  | 
OC[C@H]1O[C@@H](n2cnc3c(NN4CCCC4)nc(I)nc32)[C@H](O)[C@@H]1O | 57000 | 1.42 | 13000 |  | 
OC[C@H]1O[C@@H](n2cnc3c(NN4CCCCC4c4ccccc4)nc(Cl)nc32)[C@H](O)[C@@H]1O (stereo partly drawn) | 17 | 2.25 | 34 |  | 
OC[C@H]1O[C@@H](n2cnc3c(NN4CCCC(Sc5ccccc5)C4)nc(Cl)nc32)[C@H](O)[C@@H]1O (mixture of isomers) | 1380 | 2.89 | 13 |  | 
OC[C@H]1O[C@@H](n2cnc3c(NN4CCCC(O)C4)nc(Cl)nc32)[C@H](O)[C@@H]1O (mixture of isomers) | 720 | -0.82 | 11 | 470 | 4.6
OC[C@H]1O[C@@H](n2cnc3c(NN4CCCC(Oc5ccccc5)C4)nc(Cl)nc32)[C@H](O)[C@@H]1O (mixture of isomers) | 1733 | 1.88 | 15 | 4500 | 4.8
OC[C@H]1O[C@@H](n2cnc3c(NC4CCCC4)ncnc32)[C@H](O)[C@@H]1O [N6-CYCLOPENTYLADENOSINE] | 321 | 0.72 |  | 420 | 0.6

Continued, values first:

Ki (Adenosine A2 receptor) [nM] | logP [1] | Ki (Adenosine receptor A1) [nM] | IC50 (Cavia porcellus [2]) [nM] | IC50 (Cavia porcellus [3]) [nM] | Compound
1050 | 0.35 | 3.6 | 1290 | 3.8 | OC[C@H]1O[C@@H](n2cnc3c(NN4CCCCC4)nc(F)nc32)[C@H](O)[C@@H]1O
564 | 0.32 | 9.9 |  |  | COC[C@@H]1CCCN1Nc1nc(Cl)nc2c1ncn2[C@@H]1O[C@H](CO)[C@@H](O)[C@H]1O
1485 | 0.79 | 4.2 | 580 | 2.1 | OC[C@H]1O[C@@H](n2cnc3c(NN4CCCCC4)nc(Cl)nc32)[C@H](O)[C@@H]1O
33 | 1.38 | 4 |  |  | CC1CCCC(C)N1Nc1nc(Cl)nc2c1ncn2[C@@H]1O[C@H](CO)[C@@H](O)[C@H]1O (stereo partly drawn)
459 | 0.32 | 10.9 |  |  | COC[C@H]1CCCN1Nc1nc(Cl)nc2c1ncn2[C@@H]1O[C@H](CO)[C@@H](O)[C@H]1O
470 | 2.62 | 0.9 | 640 | 0.3 | OC[C@H]1O[C@@H](n2cnc3c(NN4CCC(Sc5ccccc5)CC4)nc(Cl)nc32)[C@H](O)[C@@H]1O
1100 | 2.05 | 1.4 | 190 | 0.03 | OC[C@H]1O[C@@H](n2cnc3c(NN4CCC(Oc5ccccc5)CC4)nc(Cl)nc32)[C@H](O)[C@@H]1O
1520 | 0.89 | 9.3 |  |  | OC[C@H]1O[C@@H](n2cnc3c(NN4CCCCC4)nc(Br)nc32)[C@H](O)[C@@H]1O
1130 | 1.42 | 9.3 |  |  | OC[C@H]1O[C@@H](n2cnc3c(NN4CCCCCC4)nc(Cl)nc32)[C@H](O)[C@@H]1O
638 | 2.28 | 6.1 | 2900 | 1.1 | OC[C@H]1O[C@@H](n2cnc3c(NN4CC=C(c5ccccc5)CC4)nc(Cl)nc32)[C@H](O)[C@@H]1O
